This is an account of results in patent publication US10160705B2, “Class of HDAC inhibitors expands the renal progenitor cells population and improves the rate of recovery from acute kidney injury” (University of Pittsburgh—Of the Commonwealth System of …, priority 2011, dated 2018).

A value given as a limit tells only on which side of the number the result lay.

The subject of this assay is renal progenitor cells. Put plainly: In situ hybridization for lhx1a expression in 10-somite embryos (renal progenitor cell expansion). The format is in vivo. The conditions noted are these: Danio rerio; for responders at 0.8 µM / responders at 1.5 µM / responders at 3 µM / responders at 0.2 µM / responders at 0.4 µM: percent of embryos with expanded kidney field; for responders at 0.8 µM: 800 nM, read-out: Expansion of Cells (including repeats* and recounts**) 800 nM; for responders at 1.5 µM: read-out: Expansion of Cells (including repeats* and recounts**) 1.5 μM; for responders at 3 µM: read-out: Expansion of Cells (including repeats* and recounts**) 3 μM; for EC50: first pass EC50 from percent expansion (Excel trendline), average where several experiments; for responders at 0.2 µM: 200 nM, read-out: Expansion of Cells (including repeats* and recounts**) 200 nM; for responders at 0.4 µM: 400 nM, read-out: Expansion of Cells (including repeats* and recounts**) 400 nM. The protocol: PTBA was synthesized as described below. Hydroxyurea and aphidicolin were obtained from Sigma-Aldrich.
In situ hybridization and immunocytochemistry: In situ hybridization was performed as previously described with some modifications.142 Hybridization temperature was 65° C. Embryos were blocked in 2% blocking reagent (Roche) with 5% sheep serum in MAB (100 mM maleic acid and 150 mM NaCl [pH 7.5]). Whole-mount immunocytochemistry with 1:25 mouse anti-α6F antibody (Developmental Studies Hybridoma Bank) and 1:100 Cy3 secondary antibody (Jackson ImmunoResearch) was performed as described previously.108 Embryos were embedded in JB-4 for sectioning per the manufacturer's instructions (Polysciences), sectioned at 5 μm, and mounted with Cytoseal 60 (Richard-Allan Scientific).
The remaining PTBA analogs were synthesized.
In situ hybridization for lhx1a was performed as described above. […] Compounds were classified as effective, partially-effective or ineffective based on comparison to the effects of PTBA at a given concentration.
Testing of the compounds is on-going, but for those tested, Table 6 provides first pass EC50s based upon colormetric in situ hybridizations for the Lhx1a mRNA expression levels. After the procedure is run, in situ hybridization is done for the lhx1 mRNA expression and the number of embryos that show an expanded kidney field is manually counted to establish the percent of embryos showing expansion. Then the EC50 is determined by plotting the percent expansion in Excel, graphing the results and using the trendline function to determine the 50 percent point.

In the case of `COC(=O)CCCCCSc1ccc(F)cc1` [UPHD-00048, methyl 6-[(4-fluoro-phenyl)sulfanyl]hexanoate], the responders at 0.8 µM was 100%, the responders at 1.5 µM was 100%, the responders at 3 µM turned out to be 100% and it took 0.28 µM to reach a half-maximal effect (EC50).

For `COC(=O)CCCCCCSc1ccccc1` [UPHD-00040, methyl 7-(phenylsulfanyl)heptanoate], the responders at 0.8 µM amounted to 6%, the responders at 1.5 µM is 15%, the responders at 3 µM worked out at 45% and the EC50 is over 3 µM.

Turning to `O=C(CCCCCCSc1ccccc1)NO` [UPHD-00041, N-hydroxy-7-(phenyl-sulfanyl)heptanamide], the responders at 0.8 µM is 0%, the responders at 1.5 µM worked out at 0%, the responders at 3 µM was 0% and the EC50 was over 3 µM.

For `Nc1ccccc1NC(=O)CCCCCSc1ccc(F)cc1` [UPHD-00053, N-(2-aminophenyl)-6-[(4-fluoro-phenyl)sulfanyl]hexanamide], the responders at 0.2 µM is 20%, the responders at 0.4 µM came to 5%, the responders at 0.8 µM was found to be 85% and the responders at 1.5 µM turned out to be 100%. The responders at 3 µM amounted to 100% and it took 0.79 µM to reach a half-maximal effect (EC50).

As for `COC(=O)CCCCCSc1ccccn1` [UPHD-00065, methyl 6-(pyridin-2-ylsulfanyl)hexanoate], the responders at 0.2 µM came out at 0%, the responders at 0.4 µM was 20%, the responders at 0.8 µM was 6% and the responders at 1.5 µM amounted to 11%. Also, the responders at 3 µM is 29% and the EC50 is over 3 µM.

Regarding `Nc1ccccc1NC(=O)CCCCCS(=O)(=O)c1ccc2ccccc2c1` [UPHD-00066, N-(2-aminophenyl)-6-(naphthalene-2-sulfonyl)hexanamide], the responders at 0.2 µM was 0%, the responders at 0.4 µM came to 0%, the responders at 0.8 µM was found to be 5% and the responders at 1.5 µM is 11%. Also, the responders at 3 µM worked out at 10% and the EC50 was over 3 µM.

For `COC(=O)CCCCCCSc1ccc(F)cc1` [UPHD-00039, methyl 7-[(4-fluor-phenyl)sulfanyl]heptanoate], the responders at 0.8 µM was found to be 20%, the responders at 1.5 µM worked out at 35%, the responders at 3 µM was found to be 11% and the EC50 was over 3 µM.

Regarding `Nc1ccccc1NC(=O)CCCCCSc1ccc2ccccc2c1` [UPHD-00060, N-(2-aminophenyl)-6-(naphthalen-2-ylsulfanyl)hexanamide], the responders at 0.2 µM is 5%, the responders at 0.4 µM came to 0%, the responders at 0.8 µM stood at 10% and the responders at 1.5 µM amounted to 20%. In addition, the responders at 3 µM came out at 5% and the EC50 is over 3 µM.

For `Cn1c(SCCCCCC(=O)Nc2ccccc2N)nc2ccccc21` [UPHD-00081, N-(2-aminophenyl)-6-[(1-methyl-1H-1,3-benzodiazol-2-yl)sulfanyl]hexanamide], the responders at 0.2 µM was determined as 0%, the responders at 0.4 µM amounted to 10%, the responders at 0.8 µM was determined as 10% and the responders at 1.5 µM came to 20%. In addition, the responders at 3 µM is 32% and the EC50 is over 3 µM.

For `Nc1ccccc1NC(=O)CCCCCSc1ccccc1` [UPHD-00049, N-(2-aminophenyl)-6-(phenylsulfanyl)hexanamide], the responders at 0.2 µM is 5%, the responders at 0.4 µM turned out to be 35%, the responders at 0.8 µM came to 60% and the responders at 1.5 µM came out at 95%. In addition, the responders at 3 µM came to 100% and the EC50 was 0.89 µM.

As for `O=C(CCCCSc1ccccc1)NO` [UPHD-00035, N-hydroxy-5-(phenyl-sulfanyl)pentanamide], the responders at 0.2 µM came to 25%, the responders at 0.4 µM stood at 10%, the responders at 0.8 µM is 0% and the responders at 1.5 µM amounted to 0%. Also, the responders at 3 µM turned out to be 21.1% and the EC50 is over 3 µM.

For the compound `O=C(NO)c1ccc(CCSc2ccc(F)cc2)cc1` [UPHD-00067, 4-{2[(4-fluoro-phenyl)sulfanyl]ethyl}-N-hydroxybenzamide], the responders at 0.2 µM was 17%, the responders at 3 µM was 20% and the EC50 stood at 0.8 µM.

Regarding `COC(=O)c1ccc(CSc2ccc(F)cc2)cc1` [UPHD-00046, methyl 4-{[(4-fluoro-phenyl)sul-fanyl]methyl}benzoate], the responders at 0.8 µM was found to be 17%, the responders at 1.5 µM amounted to 30%, the responders at 3 µM is 20% and the EC50 is over 3 µM.

In the case of `O=C(CCCCCCSc1ccc(F)cc1)NO` [UPHD-00042, 7-[(4-fluoro-phenyl)sulfanyl]-N-hydroxyheptanamide], the EC50 was over 3 µM.
